# Data: patent US11999727B2 (Tango Therapeutics, Inc., priority 2020, dated 2024)
# Experiments:
# PRMT5 [1] = molecular target: T1, PRMT5 (Homo sapiens, UniProt O14744); experiment: PRMT5 biochemical IC50 assay with MTA as cofactor; settings: PRMT5, MTA as cofactor; read-out: MTA IC50
# T1 construct: purchased Viva (custom protein)
# [2] = test system: HAP1 MTAP-deleted cell line; experiment: Viability assay, MTAP-deleted cell line; assay type: cell-based; settings: Homo sapiens, read-out: HAP1 MTAP deleted viability
# Source text: Table 1 additionally indicates IC50 values in a viability assay for the MTAP-deleted cell line (column 10), indicating the effect of treatment with compound on cell survival.
# [3] = test system: HAP1 MTAP-intact cell line; experiment: SDMA in-cell western assay, HAP1 MTAP-intact; assay type: cell-based; settings: Homo sapiens, HAP1, SDMA in-cell western, HAP1 MTAP-intact; read-out: MTAP HAP1 intact IC50
# Summary of the method: (§1)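 Compounds were tested in HAP1 cells differing only in MTAP status (endogenous expression versus null). Cellular SDMA levels were then measured by in-cell western, giving an IC50 in each background.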
# PRMT5 [4] = molecular target: T1, PRMT5; experiment: PRMT5 biochemical IC50 assay with no cofactor; settings: PRMT5, no cofactor
# Source text: Table 1 indicates IC50 values (μM) against PRMT5 for exemplary compounds in the presence of SAM as cofactor, with no cofactor, and with MTA as cofactor, respectively (columns 4-6). […] Ki values can be calculated from the IC50 values as described in the Examples section. As detailed in the Examples section, for the assay performed in the presence of SAM, IC50=Ki×1.5 (Ki=IC50/1.5).
# [5] = test system: HAP1 MTAP-deleted cell line; experiment: SDMA in-cell western assay, HAP1 MTAP-deleted; assay type: cell-based; settings: for IC50: Homo sapiens, HAP1, SDMA in-cell western, HAP1 MTAP-deleted; for MTAP intact/deleted ratio: SDMA in-cell western
# Summary of the method: as §1
# PRMT5 [6] = molecular target: T1, PRMT5; experiment: PRMT5 biochemical IC50 assay with SAM as cofactor; settings: PRMT5, SAM as cofactor; read-out: SAM IC50
# [7] = HAP1, viability assay, HAP1 MTAP-deleted
# [8] = read-out: HAP1 MTAP deleted IC50
# [9] = IC50 ratio HAP1 MTAP-intact / HAP1 MTAP-deleted
# [10] = HAP1, viability IC50, MTAP-deleted cell line
# [11] = read-out: HAP 1 MTAP deleted IC50
# [12] = HAP1, viability assay, MTAP-deleted cell line
# [13] = read-out: No Cofactor/ rel IC50
# [14] = HAP1, viability, HAP1 MTAP-deleted cell line
# T1 sequence (O14744 whole entry): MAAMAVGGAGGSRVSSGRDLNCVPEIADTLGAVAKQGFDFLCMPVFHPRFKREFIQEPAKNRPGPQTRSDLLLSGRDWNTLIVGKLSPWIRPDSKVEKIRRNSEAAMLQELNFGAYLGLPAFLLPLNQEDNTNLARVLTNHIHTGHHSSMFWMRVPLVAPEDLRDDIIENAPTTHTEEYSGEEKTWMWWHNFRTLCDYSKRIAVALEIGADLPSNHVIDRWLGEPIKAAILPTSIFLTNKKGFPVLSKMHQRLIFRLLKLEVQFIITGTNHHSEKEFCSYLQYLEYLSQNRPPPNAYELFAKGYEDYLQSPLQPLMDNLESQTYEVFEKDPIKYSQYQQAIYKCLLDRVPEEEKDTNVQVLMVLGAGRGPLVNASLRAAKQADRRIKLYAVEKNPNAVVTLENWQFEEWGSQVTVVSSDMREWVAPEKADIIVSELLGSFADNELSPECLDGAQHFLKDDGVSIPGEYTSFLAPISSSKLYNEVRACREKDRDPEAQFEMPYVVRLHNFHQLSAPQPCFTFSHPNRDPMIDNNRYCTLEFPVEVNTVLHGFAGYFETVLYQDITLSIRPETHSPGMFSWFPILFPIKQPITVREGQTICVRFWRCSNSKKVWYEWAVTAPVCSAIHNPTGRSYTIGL
# T1 sequence (Q9BQA1 whole entry partner): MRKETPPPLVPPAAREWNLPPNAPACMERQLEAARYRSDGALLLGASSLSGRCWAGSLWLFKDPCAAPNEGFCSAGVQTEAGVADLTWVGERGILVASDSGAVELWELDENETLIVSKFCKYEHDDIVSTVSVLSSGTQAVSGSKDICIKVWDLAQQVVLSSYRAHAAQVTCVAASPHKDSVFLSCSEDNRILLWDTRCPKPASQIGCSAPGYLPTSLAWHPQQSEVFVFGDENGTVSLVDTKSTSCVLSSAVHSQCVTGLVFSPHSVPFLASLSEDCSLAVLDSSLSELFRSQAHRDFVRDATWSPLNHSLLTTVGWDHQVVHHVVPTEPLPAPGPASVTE
IC50 (PRMT5 [1]) [nM],IC50 [3] [nM],IC50 (PRMT5 [4]; read-out: No Cofactor/rel IC50) [nM],"IC50 [5, 8] [nM]",IC50 (PRMT5 [6]) [nM],"IC50 [5, 11] [nM]",IC50 (PRMT5 [4]; [13]) [nM],Compound,"IC50 [2, 7] [nM]","MTAP intact/deleted ratio [5, 9]","IC50 [2, 10] [nM]","IC50 [2, 12] [nM]",MTAP intact/deleted ratio ([5]; IC50 ratio HAP1 MTAP-intact vs HAP1 MTAP-deleted),"IC50 [2, 14] [nM]"
> 500,> 1000,> 500,> 1000,> 500,–,–,"C[C@@H]1CC[C@@H](c2ccc3[nH]ncc3n2)N(C(=O)C(=O)Nc2cncc(C(N)=O)c2)C1 (single isomer, unassigned) [Compound 787]",> 10000,C (an IC50 ratio of less than 3 fold),–,–,–,–
50 to 500,> 1000,> 500,–,50 to 500,100 to 1000,–,"C[C@@H]1CN(C(=O)C(=O)Nc2cncc(C(N)=O)c2)C[C@@H]2CCCC[C@@H]21 (racemic) [Compound 541, 5-[[2-[(4S,4aR,8aR)-4-Methyl-3,4,4a,5,6,7,8,8a-octahydro-1H-isoquinolin-2-yl]-2-oxo-acetyl]amino]pyridine-3-carboxamide]",–,A (an IC50 ratio greater than or equal to 10 fold),1000 to 10000,–,–,–
< 50,100 to 1000,< 50,< 100,50 to 500,–,–,"CCc1cc(NC(=O)C(=O)N2C[C@@H](C)CC[C@@H]2c2ccc(N3CCC(CN(C)CC)CC3)cc2)cnc1N [Compound 1232, N-(6-Amino-5-ethylpyridin-3-yl)-2-[(2R,5S)-2-[4-(4-{[ethyl(methyl)amino]methyl}piperidin-1-yl)phenyl]-5-methylpiperidin-1-yl]-2-oxoacetamide]",–,–,–,< 1000,A (an IC50 ratio greater than or equal to 10 fold),–
50 to 500,> 1000,50 to 500,100 to 1000,50 to 500,–,–,"Cc1cc(NC(=O)C(=O)N2C[C@H](C)CC[C@H]2C2CC3(CC(N)C3)C2)cnc1N (mixture of isomers) [Compound 773, N-(6-amino-5-methylpyridin-3-yl)-2-(2-(6-aminospiro[3.3]heptan-2-yl)-5-methylpiperidin-1-yl)-2-oxoacetamide]",1000 to 10000,B (an IC50 ratio greater than or equal to 3 fold but lower than 10 fold),–,–,–,–
50 to 500,> 1000,> 500,> 1000,> 500,–,–,"C[C@@H]1CC[C@@H]2CCCC[C@@H]2N1C(=O)C(=O)Nc1cncc(C(N)=O)c1 (single isomer, unassigned) [Compound 236]",–,B (an IC50 ratio greater than or equal to 3 fold but lower than 10 fold),–,> 10000,–,–
50 to 500,> 1000,50 to 500,> 1000,50 to 500,–,–,"Cc1cc(NC(=O)C(=O)N2C[C@H](C(F)(F)F)CC[C@H]2c2ccccc2)cnc1N (racemic) [Compound 177, rac-N-(6-amino-5-methylpyridin-3-yl)-2-oxo-2-((2R,5S)-2-phenyl-5-(trifluoromethyl)piperidin-1-yl)acetamide]",–,B (an IC50 ratio greater than or equal to 3 fold but lower than 10 fold),–,> 10000,–,–
> 500,> 1000,> 500,> 1000,> 500,–,–,"CNC(=O)c1ccc([C@@H]2CC[C@@H](C)CN2C(=O)C(=O)Nc2cnc(OC)c(C(N)=O)c2)s1 (single isomer, unassigned) [Compound 843]",> 10000,B (an IC50 ratio greater than or equal to 3 fold but lower than 10 fold),–,–,–,–
< 50,100 to 1000,< 50,–,50 to 500,< 100,–,"Cc1cc(NC(=O)C(=O)N2C[C@H](C)CC[C@H]2c2ccc(F)c(Cl)c2)cnc1N (single isomer, unassigned) [Compound 596]",–,A (an IC50 ratio greater than or equal to 10 fold),< 1000,–,–,–
50 to 500,> 1000,–,–,> 500,> 1000,> 500,"Cc1cncc(NC(=O)C(=O)N2C[C@H](C)CC[C@H]2c2cccc(N)c2)c1 (racemic) [Compound 91, 2-[(2R,5S)-2-(3-aminophenyl)-5-methyl-1-piperidyl]-N-(5-methyl-3-pyridyl)-2-oxo-acetamide]",–,C (an IC50 ratio of less than 3 fold),–,> 10000,–,–
< 50,> 1000,50 to 500,< 100,50 to 500,–,–,"C[C@@H]1CC[C@@H](c2ccc(OC(F)(F)F)cc2)N(C(=O)C(=O)Nc2cncc(C(N)=O)c2)C1 (racemic) [Compound 250, rac-5-{2-[(2R,5S)-5-Methyl-2-[4-(trifluoromethoxy)phenyl]piperidin-1-yl]-2-oxoacetamido}pyridine-3-carboxamide]",–,A (an IC50 ratio greater than or equal to 10 fold),–,1000 to 10000,–,–
< 50,> 1000,< 50,< 100,50 to 500,–,–,"CCc1cc(NC(=O)C(=O)N2C[C@@H](C)CC[C@@H]2c2ccc(F)cc2)cnc1N (racemic) [Compound 710, N-(6-amino-5-ethylpyridin-3-yl)-2-(2-(4-fluorophenyl)-5-methylpiperidin-1-yl)-2-oxoacetamide]",< 1000,A (an IC50 ratio greater than or equal to 10 fold),–,–,–,–
< 50,> 1000,< 50,100 to 1000,50 to 500,–,–,"C[C@@H]1CC[C@@H](c2ccc3c(c2)C(=O)NC3)N(C(=O)C(=O)Nc2cncc(C(N)=O)c2)C1 (single isomer, unassigned) [Compound 746]",1000 to 10000,A (an IC50 ratio greater than or equal to 10 fold),–,–,–,–
50 to 500,> 1000,> 500,> 1000,> 500,–,–,"Cc1cc(NC(=O)C(=O)N2CCCC[C@@H]2C(C)C)cnc1N (single isomer, unassigned) [Compound 204]",–,C (an IC50 ratio of less than 3 fold),–,> 10000,–,–
< 50,100 to 1000,–,–,50 to 500,< 100,< 50,"CCc1cc(NC(=O)C(=O)N2C[C@@H](C)CC[C@@H]2c2ccc(CCN(C)C)c(Cl)c2)cnc1N [Compound 1402, N-(6-amino-5-ethylpyridin-3-yl)-2-((2R,5S)-2-(3-chloro-4-(2-(dimethylamino)ethyl)phenyl)-5-methylpiperidin-1-yl)-2-oxoacetamide]",–,A (an IC50 ratio greater than or equal to 10 fold),–,–,–,< 1000
50 to 500,> 1000,> 500,> 1000,> 500,–,–,"Cc1cccc2cc([C@@H]3CC[C@@H](C)CN3C(=O)C(=O)Nc3cncc(C(N)=O)c3)cnc12 (racemic) [Compound 215, rac-5-{2-[(2R,5S)-5-Methyl-2-(8-methylquinolin-3-yl)piperidin-1-yl]-2-oxoacetamido}pyridine-3-carboxamide]",–,B (an IC50 ratio greater than or equal to 3 fold but lower than 10 fold),–,> 10000,–,–
< 50,< 100,–,–,< 50,< 100,< 50,"CCc1cc(NC(=O)C(=O)N2C[C@@H](C)CC[C@@H]2c2ccc3sc([C@@H](C)CN(C)C)nc3c2)cnc1N [Compound 1324, N-(6-amino-5-ethylpyridin-3-yl)-2-((2R,5S)-2-(2-(1-(dimethylamino)propan-2-yl)benzo[d]thiazol-5-yl)-5-methylpiperidin-1-yl)-2-oxoacetamide]",–,A (an IC50 ratio greater than or equal to 10 fold),–,–,–,< 1000
> 500,> 1000,> 500,> 1000,> 500,–,–,"Cc1cccc([C@@H]2CC[C@@H](C)CN2C(=O)C(=O)Nc2cncc(C(N)=O)c2)c1 (single isomer, unassigned) [Compound 227]",–,C (an IC50 ratio of less than 3 fold),–,> 10000,–,–
